Assay results from patent US11739261B2, “Fluorescent probes for acid detection” (THE HONG KONG UNIVERSITY OF SCIENCE AND TECHNOLOGY, priority 2019, dated 2023).

Assay: Acid response study of TPI-C in the aggregation state (PL intensity)
Type: physicochemical
Method: FIGS. 1A-1C depict PL spectra of TPI-C (10 μM in THF/hexane mixtures with fH=99%) with adding (1A) HCOOH at different concentrations; (1B) CH3COOH at different concentrations; and (1C) CF3COOH at different concentrations.
FIG. 1D is a graph of relative PL intensity (I/I0) at different acid concentrations (x-axis represents acid concentration at (a) 0 M, (b) 1×10^−20 M, (c) 1×10^−14 M and (d) 1×10^−8 M, respectively).
An acid response study of TPI-C in the aggregation state was performed first. The fluorescent intensity response of TPI-C was investigated by adding different acids with various concentrations. In general, the fluorescent intensity of TPI-C was enhanced upon adding the acid. TPI-C responded in this manner to the formic acid, acetic acid (AcOH) and trifluoroacetic acid (TFA) at concentrations as low as 10^−20 M. For the formic acid, its highest intensity enhancement was around 55% at the acid concentration level of 10^−20 M, as shown in FIG. 1A. When AcOH (1×10^−20 M, 1 μL) and TFA (1×10^−20 M, 1 μL) were added to the TPI-C solution, the intensity enhancement of TPI-C was around 120% (FIG. 1B) and 96% (FIG. 1C), respectively.

CCCCCCCCn1c(-c2ccc(OC(=O)NCC)cc2)nc(-c2ccccc2)c1-c1ccccc1 [TPI-C]
fluorescent intensity enhancement (AcOH 1×10^−20 M, 1 μL added to TPI-C solution): around 120%
fluorescent intensity enhancement (TFA 1×10^−20 M, 1 μL added to TPI-C solution): ~96%
fluorescent intensity enhancement (formic acid 10^−20 M, TPI-C 10 μM in THF/hexane fH=99%, highest enhancement): around 55%
acid concentration at which fluorescent intensity is enhanced (as low as) (formic acid, AcOH, TFA): 10^−20 M
